The source of these data is patent publication US20080227815A1, “Crystal of Indole Derivative Having Piperidine Ring and Process for Production Thereof” (priority 2005, published 2008).

The target in one assay is T1, Rat 5-HT1A (Rattus norvegicus, UniProt P19327).
T1 construct: A rat hippocampus sample was homogenized in a 50 mM Tris-HCl buffer; from tissue; host or cells: rat hippocampus (membrane fraction)
T1 sequence (P19327 1-422): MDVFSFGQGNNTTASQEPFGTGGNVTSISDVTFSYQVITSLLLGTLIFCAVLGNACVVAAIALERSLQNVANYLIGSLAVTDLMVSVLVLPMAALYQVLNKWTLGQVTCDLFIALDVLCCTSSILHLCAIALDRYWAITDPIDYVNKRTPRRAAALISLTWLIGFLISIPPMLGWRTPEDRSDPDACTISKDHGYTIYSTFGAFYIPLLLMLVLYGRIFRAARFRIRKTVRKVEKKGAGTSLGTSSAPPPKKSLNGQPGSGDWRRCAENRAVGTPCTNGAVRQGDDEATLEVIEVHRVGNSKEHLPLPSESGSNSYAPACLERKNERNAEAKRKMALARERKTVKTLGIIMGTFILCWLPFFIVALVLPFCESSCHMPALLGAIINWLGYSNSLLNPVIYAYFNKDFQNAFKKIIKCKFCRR
Put plainly: Affinity for rat serotonin1A receptor ([3H]MPPF binding to rat hippocampal membrane fraction). The note with it: pH 7.4, 25° C., 60 min, non-specific binding with 10 μM serotonin, Ki from IC50, tracer concentration and Kd (Scatchard). How it is done:
Test Regarding Affinity for Rat Serotonin1A Receptor
An MPPF rat hippocampal membrane fraction selectively binding to the 5-HT1A receptor was used to test affinity of a test substance for the rat 5-HT1A receptor.
A rat hippocampus sample was homogenized in a 50 mM Tris-HCl buffer (pH 7.4; hereinafter referred to as “buffer A”) that had been cooled with ice. The suspension was centrifuged at 50,000×g for 20 minutes. The obtained sediment was suspended in buffer solution A, and the resultant solution was then centrifuged at 50,000×g for 20 minutes. The obtained sediment was suspended in buffer solution to obtain a rat hippocampus membrane fraction.
The mixture used for incubation contained an appropriate amount of membrane fraction, a test substance at a desired concentration, [^3H]MPPF, dimethyl sulfoxide and buffer A. The reaction was initiated through the addition of the membrane fraction, and the mixture was incubated at 25° C. for 60 minutes. After incubation, the mixture was subjected to vacuum filtration by passing through a glass filter using a Cell Harvester. The filter was washed 3 times with buffer solution A, and then radioactivity binding to the receptor was measured with a liquid scintillation counter. Non-specific binding was defined as binding detected in the presence of 10 μM serotonin. […]

For another assay, the system named is urinary reflex. Nature of the assay: Inhibitory action against the increased urinary reflex action due to destruction of the superior colliculus in rats (cystometrogram). Type of assay: in vivo, rat (Sprague-Dawley. The note with it: 1 mg/kg, i.v.; superior colliculus-lesioned female Sprague-Dawley rats; maximal reaction (Emax). The text has this: In the present test, Sprague-Dawley female rats (200-350 g) were used. The rats underwent a median incision of the abdomen under anesthesia. A hole with a minor diameter was made on the apex of the bladder, and a catheter used for measurement of an intravesical pressure was placed therein. A catheter used for administration of a test substance was placed in the femoral vein. These catheters were fixed at the occipital region of the rat through the subcutis. One day later, the urinary reflex of the rats was measured with a cystometrogram. Thereafter, the rats were fixed on a brain stereotaxis apparatus under anesthesia, and then subjected to a median incision of the scalp. […] Electric current was then applied (65° C., 4 minutes) so as to damage the brain tissue. After completion of the operation, when the rat awoke from the anesthesia, cystometrogram was conducted again to confirm the increased state of urinary reflex. A test substance was administered through the catheter placed in the femoral vein, and the action of the test substance on urinary reflex was evaluated. In addition, the effects of several test substances were compared using the maximal reaction (Emax).

Structures can show the parent of a compound that is named as a salt.

By Ki is commonly meant a measure of affinity in units of concentration, obtained from inhibition or displacement. A higher Ki goes with a looser hold on the target. In the case of `CNC(=O)c1ccc2ccn(C3CCN(CCc4c(OC)ccc5c4OC(C)(C)CC5=O)CC3)c2c1` [Form D crystal form of fumarate, 1-{1-[2-(7-methoxy-2,2-dimethyl-4-oxochroman-8-yl)ethyl]piperidin-4-yl}-N-methyl-1H-indole-6-carboxamide fumarate (form D crystal)], at Rat 5-HT1A, the Ki was found to be 45 pM. Also, in the assay with urinary reflex, the “Urinary interval Emax” value was found to be 75%.
